Values after ≈ are worked out from the molar mass of the structure shown.
Columns and labels:
[1] = system: Aspergillus flavus ATCC MYA-3631 (strain K); experiment: Antifungal MIC determination, filamentous fungi spores; assay type: cell-based; conditions: all compounds
Experimental: (§1) Fungal MIC determination experiments were performed using untreated 96-well plates (Corning). Cells were counted either by using a hemocytometer (Hausser Scientific, Horsham, Pa., USA) or by measuring optical density at attenuance of 600 nm (OD600) by using a Genesys 20 spectrophotometer (Thermo Scientific, Waltham, Mass., USA). Spectrophotometric and colorimetric measurements in 96-well plates were performed using a SpectraMax M5 spectrometer (Molecular Devices, Sunnyvale, Calif., USA).
(§2) Yeast strains Candida albicans ATCC 10231 (strain A), C. albicans ATCC 64124 (strain B), and C. albicans ATCC MYA-2876(S) (strain C) were kindly provided by Dr. Jon Y. Takemoto (Utah State University, Logan, UT, USA). C. albicans ATCC MYA-90819(R) (strain D), C. albicans ATCC MYA-2310(S) (strain E), C. albicans ATCC 1237(R) (strain F), C. albicans ATCC MYA-1003(R) (strain G), Candida glabrata ATCC 2001 (strain H), Candida krusei ATCC 6258 (strain I), and Candida parapsilosis ATCC 22019 (strain J) were obtained from the American Type Culture Collection (ATCC, Manassas, Va., USA). The (S) and (R) indicate that ATCC reports these strains to be susceptible (S) and resistant (R) to ITC and FLC. The filamentous fungal strains Aspergillus flavus ATCC MYA-3631 (strain K), and Aspergillus terreus ATCC MYA-3633 (strain M) were also obtained from the American Type Culture Collection (ATCC, Manassas, Va., USA). Aspergillus nidulans ATCC 38163 (strain L) was kindly provided by Dr. Jon S. Thorson (University of Kentucky, Lexington, Ky., USA), respectively. Yeast strains were cultured at 35° C. Filamentous fungal strains were cultured at 25° C. and the spores were harvested. All fungal strains were cultured in RPMI 1640 medium (catalog # R6504, Sigma-Aldrich Chemical Co., St. Louis, Mo.) buffered to pH 7.0 with 0.165 M morpholinepropanesulfonic acid (MOPS) buffer (Sigma-Aldrich Chemical Co.).
(§3) The MIC values against fungal strains were determined based on a previously published protocol. MIC values for ebsulfur (2a) analogues against fungal cells were evaluated in 96-well plates as described in the CLSI document M27-A3 with minor modifications. […] Therefore, potato dextrose broth (PDB) was used to grow the yeast inocula of all strains tested, which were later diluted in RPMI 1640 medium to perform determination of MIC values. […] The tested compounds (10 mg/mL) were diluted to the working stocks (500 μg/mL) by addition of DMSO. Two-fold serial dilution of the working stocks was prepared by addition of RPMI 1640 medium (100 μL) and cell suspension (100 μL) to 96-well microtiter plate to achieve final drug and inoculum concentrations ranging from 12.5-0.02 μg/mL and 5×10^3 CFU/mL, respectively. Plates were incubated for 48 h at 35° C.
(§4) MIC assays for the spore-forming filamentous fungi, such as strain A. flavus ATCC MYA-3631 (strain K), were performed in a similar fashion. The filamentous fungal strains were first cultured at 25° C. on potato dextrose agar (PDA) plates for 3-5 days or until confluent. Spores were collected by washing the surface of the agar plates with dd H2O (5 mL) and then isolated the spores by gravity filtration (the spores are H2O soluble). […] Researchers working with spores should wear a facemask to prevent spore inhalation.

[2] = system: Aspergillus terreus ATCC MYA-3633 (strain M); experiment: as above; assay type: cell-based; conditions: strain M; all compounds; spores
Experimental: as §1, §2, §3, §4

[3] = system: Aspergillus nidulans ATCC 38163 (strain L); experiment: as above; assay type: cell-based; conditions: strain L; spores
Experimental: as §1, §2, §3, §4

Candida strains (A-J) = experiment: Antifungal MIC, summary over panel of Candida strains; assay type: cell-based; conditions: Candida strains A-J
Experimental: as §1, §2
as §3, with “C. […]” for “C.”

[4] = system: C. albicans ATCC MYA-2310(S) (strain E); experiment: Antifungal MIC determination (CLSI M27-A3, 96-well); assay type: cell-based, Candida albicans; conditions: strain E; compounds 1-4n and AmB; 48 h, RPMI 1640
Experimental: as §1, §2
as §3, with “C. […]” for “C.”

[5] = system: C. albicans ATCC MYA-2876(S) (strain C); experiment: as above; assay type: cell-based, Candida albicans; conditions: strain C; compounds 1-4n and AmB; 48 h, RPMI 1640
Experimental: as §1, §2
as §3, with “C. […]” for “C.”

[6] = system: C. albicans ATCC 90819(R) (strain D); experiment: microbe, parasite or virus in culture; assay type: cell-based, Candida albicans; conditions: strain D; compounds 1-4n and AmB; 48 h, RPMI 1640
Experimental: as §1, §2
as §3, with “C. […]” for “C.”

[7] = system: C. albicans ATCC MYA-1237(R) (strain F); experiment: microbe, parasite or virus in culture; assay type: cell-based, Candida albicans; conditions: strain F; compounds 1-4n and AmB; 48 h, RPMI 1640
Experimental: as §1, §2
as §3, with “C. […]” for “C.”

[8] = system: C. albicans ATCC MYA-1003(R) (strain G); experiment: microbe, parasite or virus in culture; assay type: cell-based, Candida albicans; conditions: strain G; compounds 1-4n and AmB; 48 h, RPMI 1640
Experimental: as §1, §2
as §3, with “C. […]” for “C.”

[9] = system: C. albicans ATCC 64124 (strain B); experiment: microbe, parasite or virus in culture; assay type: cell-based, Candida albicans; conditions: strain B; compounds 1-4n and AmB; 48 h, RPMI 1640
Experimental: as §1, §2
as §3, with “C. […]” for “C.”

[10] = system: Candida krusei ATCC 6258 (strain I); experiment: Antifungal MIC determination (CLSI M27-A3, 96-well); assay type: cell-based; conditions: strain I; compounds 1-4n and AmB; 48 h, RPMI 1640
Experimental: as §1, §2
as §3, with “C. […]” for “C.”

[11] = system: Candida albicans ATCC 10231 (strain A); experiment: as above; assay type: cell-based; conditions: strain A; compounds 1-4n and AmB; 48 h, RPMI 1640
Experimental: as §1, §2
as §3, with “C. […]” for “C.”

[12] = system: Candida parapsilosis ATCC 22019 (strain J); experiment: as above; assay type: cell-based; conditions: strain J; compounds 1-4n and AmB; 48 h, RPMI 1640
Experimental: as §1, §2
as §3, with “C. […]” for “C.”

[13] = system: Candida glabrata ATCC 2001 (strain H); experiment: as above; assay type: cell-based; conditions: strain H; compounds 1-4n and AmB; 48 h, RPMI 1640
Experimental: as §1, §2
as §3, with “C. […]” for “C.”

| Structure (SMILES) | MIC-0 [1] [µg/mL] | MIC-0 [2] [µg/mL] | MIC-0 [3] [µg/mL] | MIC values against Candida strains, range (Candida strains (A-J)) [µg/mL] | MIC-0 [4] [µg/mL] | MIC-0 [5] [µg/mL] | MIC-0 [6] [µg/mL] | MIC-0 [7] [µg/mL] | MIC-0 [8] [µg/mL] | MIC-0 [9] [µg/mL] | MIC-0 [10] [µg/mL] | MIC-0 [11] [µg/mL] | MIC-0 [12] [µg/mL] | MIC-0 [13] [µg/mL] |
| --- | --- | --- | --- | --- | --- | --- | --- | --- | --- | --- | --- | --- | --- | --- |
| CC(C)c1ccc(-n2sc3ccccc3c2=O)cc1 [Compound 2e] | 6.25 (≈ 23.2 µM) | 6.25 (≈ 23.2 µM) | 6.25 (≈ 23.2 µM) | 3.13 to 6.25 | 3.13 (≈ 11.6 µM) | 3.13 (≈ 11.6 µM) | 3.13 (≈ 11.6 µM) | 6.25 (≈ 23.2 µM) | 3.13 (≈ 11.6 µM) | 3.13 (≈ 11.6 µM) | 3.13 (≈ 11.6 µM) | 3.13 (≈ 11.6 µM) | 3.13 (≈ 11.6 µM) | 3.13 (≈ 11.6 µM) |
| O=c1c2ccccc2sn1-c1cccc2ccccc12 [Compound 2l] | 12.5 (≈ 45.1 µM) | 12.5 (≈ 45.1 µM) | 12.5 (≈ 45.1 µM) |  | >12.5 | >12.5 | 3.13 (≈ 11.3 µM) | >12.5 | 6.25 (≈ 22.5 µM) | 12.5 (≈ 45.1 µM) | 6.25 (≈ 22.5 µM) | 6.25 (≈ 22.5 µM) | 12.5 (≈ 45.1 µM) | 12.5 (≈ 45.1 µM) |
| O=c1c2ccccc2sn1-c1ccccn1 [Compound 2m] | 12.5 (≈ 54.8 µM) | 12.5 (≈ 54.8 µM) | 12.5 (≈ 54.8 µM) |  | 6.25 (≈ 27.4 µM) | 12.5 (≈ 54.8 µM) | 6.25 (≈ 27.4 µM) | 6.25 (≈ 27.4 µM) | 6.25 (≈ 27.4 µM) | 6.25 (≈ 27.4 µM) | 6.25 (≈ 27.4 µM) | 6.25 (≈ 27.4 µM) | 12.5 (≈ 54.8 µM) | 12.5 (≈ 54.8 µM) |
| CCCCCCCCn1sc2ccccc2c1=O [Compound 3c] | ≤0.02 | ≤0.02 | ≤0.02 |  | 1.56 (≈ 5.92 µM) | 6.25 (≈ 23.7 µM) | 3.13 (≈ 11.9 µM) | 1.56 (≈ 5.92 µM) | 1.56 (≈ 5.92 µM) | 1.56 (≈ 5.92 µM) | 1.56 (≈ 5.92 µM) | 6.25 (≈ 23.7 µM) | 0.78 (≈ 2.96 µM) | 1.56 (≈ 5.92 µM) |
| CC(C)Cn1sc2ccccc2c1=O [Compound 3e] | 0.20 (≈ 0.965 µM) | 0.10 (≈ 0.482 µM) | 0.02 (≈ 0.0965 µM) |  | 0.78 (≈ 3.76 µM) | 0.78 (≈ 3.76 µM) | 0.78 (≈ 3.76 µM) | 0.78 (≈ 3.76 µM) | 1.56 (≈ 7.53 µM) | 1.56 (≈ 7.53 µM) | 0.39 (≈ 1.88 µM) | 0.78 (≈ 3.76 µM) | 0.78 (≈ 3.76 µM) | 1.56 (≈ 7.53 µM) |
| CC(C)CCn1sc2ccccc2c1=O [Compound 3f] | 0.20 (≈ 0.904 µM) | 0.10 (≈ 0.452 µM) | 0.02 (≈ 0.0904 µM) |  | 0.78 (≈ 3.52 µM) | 1.56 (≈ 7.05 µM) | 0.78 (≈ 3.52 µM) | 0.78 (≈ 3.52 µM) | 1.56 (≈ 7.05 µM) | 0.78 (≈ 3.52 µM) | 0.39 (≈ 1.76 µM) | 1.56 (≈ 7.05 µM) | 1.56 (≈ 7.05 µM) | 1.56 (≈ 7.05 µM) |
| O=c1c2ccccc2sn1CCc1ccccc1 [Compound 3i] | 0.78 (≈ 3.05 µM) | 0.20 (≈ 0.783 µM) | 0.20 (≈ 0.783 µM) |  | 1.56 (≈ 6.11 µM) | 1.56 (≈ 6.11 µM) | 1.56 (≈ 6.11 µM) | 1.56 (≈ 6.11 µM) | 1.56 (≈ 6.11 µM) | 1.56 (≈ 6.11 µM) | 1.56 (≈ 6.11 µM) | 1.56 (≈ 6.11 µM) | 1.56 (≈ 6.11 µM) | 1.56 (≈ 6.11 µM) |
| O=c1c2ccccc2sn1C1CCCCCC1 [Compound 3m] | 0.10 (≈ 0.404 µM) | 0.20 (≈ 0.809 µM) | 0.20 (≈ 0.809 µM) |  | 3.13 (≈ 12.7 µM) | 3.13 (≈ 12.7 µM) | 1.56 (≈ 6.31 µM) | 1.56 (≈ 6.31 µM) | 3.13 (≈ 12.7 µM) | 1.56 (≈ 6.31 µM) | 0.39 (≈ 1.58 µM) | 1.56 (≈ 6.31 µM) | 3.13 (≈ 12.7 µM) | 3.13 (≈ 12.7 µM) |

— patent US10544112B2, “Identification of ebsulfur analogues with broad-spectrum antifungal activity” (priority 2017, dated 2020)
